How the values were obtained:
[1] = tested on: panel of 80 human PKs; test: Mammalian kinase profiling, whole panel (4f, 4m, 4y); assay type: biochemical; conditions: 10 μM
Protocol: (§1) To assess the selectivity of the aminopyrazole inhibitors, remaining activity at 10 μM concentration was measured for compounds 4f, 4m, and 4y against a panel of 80 human PKs and for compound 9g against 124 human PKs. […] Compound 4m inhibited only two PKs, namely GSK3β and CDK2, at more than 80%.
(§2) Selected compounds were screened against a panel of mammalian kinases routinely run by the Division of Signal Transduction Therapy (DSTT) at the University of Dundee in duplicate at 10 μM.[32] Enzymes included in the panel and assay conditions are reported in the literature. All biochemical assays are run below the Km^app for the ATP for each enzyme, allowing comparison of inhibition across the panel.

[2] = target: T1, P38b MAPK (Homo sapiens, UniProt Q15759); test: Mammalian kinase profiling (DSTT panel); assay type: biochemical; conditions: 10 μM; average percentage of remaining activity
T1 construct: purchased Division of Signal Transduction Therapy (DSTT), University of Dundee

[3] = target: T2, P38s MAPK (Homo sapiens, UniProt O15264); test: Mammalian kinase profiling (DSTT panel); assay type: biochemical; conditions: 10 μM; average percentage of remaining activity
T2 construct: purchased Division of Signal Transduction Therapy (DSTT), University of Dundee

[4] = target: T3, EF2K (Homo sapiens, UniProt O00418); test: Mammalian kinase profiling (DSTT panel); assay type: biochemical; conditions: 10 μM; average percentage of remaining activity
T3 construct: purchased Division of Signal Transduction Therapy (DSTT), University of Dundee

[5] = target: T4, MNK2 (Homo sapiens, UniProt Q9HBH9); test: Mammalian kinase profiling (DSTT panel); assay type: biochemical; conditions: 10 μM; average percentage of remaining activity
T4 construct: purchased Division of Signal Transduction Therapy (DSTT), University of Dundee

[6] = target: T5, PHK (Homo sapiens, UniProt Q16816); test: Mammalian kinase profiling (DSTT panel); assay type: biochemical; conditions: 10 μM; average percentage of remaining activity
T5 construct: purchased Division of Signal Transduction Therapy (DSTT), University of Dundee

[7] = target: T6, TBK1 (Homo sapiens, UniProt Q9UHD2); test: Mammalian kinase profiling (DSTT panel); assay type: biochemical; conditions: 10 μM; average percentage of remaining activity
T6 construct: purchased Division of Signal Transduction Therapy (DSTT), University of Dundee

[8] = target: HsCDK2/cyclin A (Homo sapiens, UniProt P24941); test: Radiometric Flashplate potency assay, HsCDK2/cyclin A; assay type: biochemical; conditions: ratio of IC50 values
Protocol: (§3) For compound potency determinations, a radiometric 96-well Flashplate assay (PerkinElmer) was adopted. Compounds were solubilized in DMSO at a top concentration of 3 mM and serially diluted to achieve 10-point titration of final assay concentrations from 30 μM to 0.3 nM with a final DMSO concentration of 1% (v/v). The reaction mixtures contained 1 μM biotinylated GSP2 substrate, 1 μM ATP, 3.7 KBq/well [γ-33P]-ATP and 2.5 nM TbGSK3 in the TbGSK3 kinase assay buffer. GSK3 inhibitors were screened for selectivity assessment also against HsGSK3β. For HsGSK3 assay, the reaction mixes contained 1 μM biotinylated GSP2 substrate, 2 μM ATP, 7.4 KBq/well [γ-33P]-ATP and 15 nM HsGSK3β in the TbGSK3 kinase assay buffer (25 mM Tris-HCl, pH 7.5, 10 mM MgCl2, 5 mM DTT, 0.02% CHAPS, 2 U/mL heparin). For HsCDK2/cyclin A assay, the reaction mixtures contained 1 mM CDK5 biotinylated peptide substrate (Biotin-C6-PKTPKKAKKL), 1 μM ATP, 7.4 KBq/well [γ-^33P]-ATP and 2 nM HsCDK2/cyclin A in the kinase assay buffer (50 mM Tris-HCl, pH 7.5, 10 mM MgCl2, 2 mM DTT, 100 mM NaCl, 0.2 mM EGTA, 0.02% (v/v) Brij35).
For the HsCDK2 assay, the analysis was performed using two different standards (GW8510 and staurosporine) tested respectively five times in a single run and 19 times in 2 independent runs. This implies that a difference of >0.3 in pIC50 can be considered statistically significant for this assay.

[9] = target: T7, TbGSK3 short (Trypanosoma brucei brucei, UniProt Q388M1); test: Radiometric 96-well Flashplate potency assay, TbGSK3; assay type: biochemical
T7 sequence (Q388M1 1-352): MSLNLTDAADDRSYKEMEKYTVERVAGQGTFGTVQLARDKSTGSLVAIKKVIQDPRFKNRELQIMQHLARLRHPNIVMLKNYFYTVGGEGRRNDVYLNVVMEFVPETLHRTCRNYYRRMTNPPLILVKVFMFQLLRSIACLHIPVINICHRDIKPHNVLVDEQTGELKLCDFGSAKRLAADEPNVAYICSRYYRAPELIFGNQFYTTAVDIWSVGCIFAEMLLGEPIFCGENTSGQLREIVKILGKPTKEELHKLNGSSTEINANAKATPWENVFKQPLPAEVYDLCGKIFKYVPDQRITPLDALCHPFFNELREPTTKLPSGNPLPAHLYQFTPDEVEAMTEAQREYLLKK
Protocol: as §3
The statistical significance of the compound potency (IC50) was based on the performance of standard molecules which have been tested to a high replication. In the case of TbGSK3 short assay, the standard compound GW8510 was tested 93 times across 9 independent runs. […] The minimum significant ratio (MSR) of 0.4 was evaluated considering the following formula: [drawing 1] where SD is the standard deviation and N the number of replicate values routinely used for the assay (2 in our case).[31] This implies that a difference of >0.4 in pIC50 can be considered statistically significant for this assay.

[10] = target: T8, GSK3b (Homo sapiens, UniProt P49841); test: Mammalian kinase profiling (DSTT panel); assay type: biochemical; conditions: read-out: inhibition of GSK3β
T8 construct: purchased Division of Signal Transduction Therapy (DSTT), University of Dundee

[11] = target: T9, CDK2 (Homo sapiens, UniProt P24941); test: Mammalian kinase profiling (DSTT panel); assay type: biochemical
T9 construct: purchased Division of Signal Transduction Therapy (DSTT), University of Dundee

[12] = tested on: AMPK; test: Mammalian kinase profiling (DSTT panel); assay type: biochemical, human; conditions: 10 μM; average percentage of remaining activity
Protocol: as §1, §2

[13] = tested on: MRC5 cells; test: MRC5 proliferation assay (resazurin); assay type: cell-based, human; conditions: T. b. brucei versus MRC5 EC50
Protocol: (§4) Measurement of inhibition of the proliferation of MRC5 (human lung fibroblast) cells and T. b. brucei bloodstream stage cells was performed using a modification of the cell viability assay previously described.[33] Compounds (50 μM to 0.5 nM) were incubated with 2 × 10^3 cells/well in 0.2 mL of the appropriate culture medium (MEM with 10% fetal bovine serum for MRC5 cells) in clear 96-well plates. Plates were incubated at 37 °C in the presence of 5% CO2 for 69 h. Resazurin was then added to a final concentration of 50 μM, and plates were incubated as above for a further 4 h before being read on a BioTek flx800 fluorescent plate reader.

[14] = tested on: bloodstream form T. b. brucei; test: Trypanosome proliferation assay (resazurin); assay type: cell-based; conditions: Trypanosoma brucei, 72 h, concentration required to inhibit growth in culture by 50% over 72 h
Protocol: as §4

[15] = tested on: endogenous TbGSK3 short; conditions: parasite cell extracts; cited from earlier work
[16] = target: T10, PKBa (Homo sapiens, UniProt P31749); test: Mammalian kinase profiling (DSTT panel); assay type: biochemical; conditions: average percentage of remaining activity, read-out: PKBa activity compared to the control
T10 construct: purchased Division of Signal Transduction Therapy (DSTT), University of Dundee

[17] = target: T11, PRK2 (Homo sapiens, UniProt Q16513); test: Mammalian kinase profiling (DSTT panel); assay type: biochemical; conditions: 10 μM; average percentage of remaining activity
T11 construct: purchased Division of Signal Transduction Therapy (DSTT), University of Dundee

[18] = target: T12, RSK2 (Homo sapiens, UniProt P51812); test: Mammalian kinase profiling (DSTT panel); assay type: biochemical; conditions: 10 μM; average percentage of remaining activity
T12 construct: purchased Division of Signal Transduction Therapy (DSTT), University of Dundee
T12 sequence (P51812 whole entry): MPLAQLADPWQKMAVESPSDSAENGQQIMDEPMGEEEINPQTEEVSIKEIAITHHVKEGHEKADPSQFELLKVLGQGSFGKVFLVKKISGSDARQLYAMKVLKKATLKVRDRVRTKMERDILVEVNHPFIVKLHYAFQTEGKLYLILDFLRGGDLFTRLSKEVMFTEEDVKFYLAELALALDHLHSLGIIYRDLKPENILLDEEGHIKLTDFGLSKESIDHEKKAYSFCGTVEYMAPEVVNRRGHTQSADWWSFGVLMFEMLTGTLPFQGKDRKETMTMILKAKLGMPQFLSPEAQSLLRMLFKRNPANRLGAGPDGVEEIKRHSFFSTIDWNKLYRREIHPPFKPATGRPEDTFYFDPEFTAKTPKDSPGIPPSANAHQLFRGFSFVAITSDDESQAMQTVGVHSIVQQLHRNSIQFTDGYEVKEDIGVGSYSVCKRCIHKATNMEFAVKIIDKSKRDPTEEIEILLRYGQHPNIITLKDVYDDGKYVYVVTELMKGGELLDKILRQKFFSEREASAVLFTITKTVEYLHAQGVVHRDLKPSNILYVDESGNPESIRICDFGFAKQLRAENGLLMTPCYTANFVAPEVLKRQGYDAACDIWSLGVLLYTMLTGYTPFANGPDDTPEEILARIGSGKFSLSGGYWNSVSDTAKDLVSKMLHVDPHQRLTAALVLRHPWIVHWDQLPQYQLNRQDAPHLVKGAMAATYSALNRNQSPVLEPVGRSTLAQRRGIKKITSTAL

T5 sequence (Q16816 whole entry): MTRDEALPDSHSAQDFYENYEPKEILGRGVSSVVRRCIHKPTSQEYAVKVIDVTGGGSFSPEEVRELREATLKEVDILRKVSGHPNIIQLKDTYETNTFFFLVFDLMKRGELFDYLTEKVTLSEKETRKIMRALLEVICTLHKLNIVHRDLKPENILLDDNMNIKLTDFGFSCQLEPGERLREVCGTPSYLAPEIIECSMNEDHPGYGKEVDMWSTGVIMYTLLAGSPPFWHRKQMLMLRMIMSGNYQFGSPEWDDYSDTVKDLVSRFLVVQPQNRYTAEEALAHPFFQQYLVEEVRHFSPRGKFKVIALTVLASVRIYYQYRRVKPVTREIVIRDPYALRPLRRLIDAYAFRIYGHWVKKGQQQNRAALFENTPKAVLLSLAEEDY
T4 sequence (Q9HBH9 whole entry): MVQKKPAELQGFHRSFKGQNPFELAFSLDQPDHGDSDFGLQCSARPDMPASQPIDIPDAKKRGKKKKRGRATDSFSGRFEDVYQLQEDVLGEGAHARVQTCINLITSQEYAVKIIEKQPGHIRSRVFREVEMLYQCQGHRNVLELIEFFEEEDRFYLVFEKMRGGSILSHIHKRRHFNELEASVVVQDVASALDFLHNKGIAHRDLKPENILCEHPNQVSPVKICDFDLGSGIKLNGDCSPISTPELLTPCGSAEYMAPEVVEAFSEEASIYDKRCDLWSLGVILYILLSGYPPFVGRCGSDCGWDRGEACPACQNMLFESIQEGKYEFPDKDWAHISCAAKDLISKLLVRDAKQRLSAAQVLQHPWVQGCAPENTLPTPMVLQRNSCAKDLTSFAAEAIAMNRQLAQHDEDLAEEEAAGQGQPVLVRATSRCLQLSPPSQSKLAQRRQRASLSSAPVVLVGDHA
T2 sequence (O15264 whole entry): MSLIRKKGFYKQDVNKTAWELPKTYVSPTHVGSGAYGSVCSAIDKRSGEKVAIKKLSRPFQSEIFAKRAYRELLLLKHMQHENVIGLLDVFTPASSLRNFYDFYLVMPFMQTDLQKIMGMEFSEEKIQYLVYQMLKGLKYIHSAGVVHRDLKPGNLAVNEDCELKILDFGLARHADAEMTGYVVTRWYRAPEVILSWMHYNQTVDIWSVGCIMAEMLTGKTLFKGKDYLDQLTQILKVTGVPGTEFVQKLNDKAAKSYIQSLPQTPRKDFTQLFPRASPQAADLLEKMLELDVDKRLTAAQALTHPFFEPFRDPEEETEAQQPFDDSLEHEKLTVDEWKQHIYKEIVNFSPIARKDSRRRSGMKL
T6 sequence (Q9UHD2 whole entry): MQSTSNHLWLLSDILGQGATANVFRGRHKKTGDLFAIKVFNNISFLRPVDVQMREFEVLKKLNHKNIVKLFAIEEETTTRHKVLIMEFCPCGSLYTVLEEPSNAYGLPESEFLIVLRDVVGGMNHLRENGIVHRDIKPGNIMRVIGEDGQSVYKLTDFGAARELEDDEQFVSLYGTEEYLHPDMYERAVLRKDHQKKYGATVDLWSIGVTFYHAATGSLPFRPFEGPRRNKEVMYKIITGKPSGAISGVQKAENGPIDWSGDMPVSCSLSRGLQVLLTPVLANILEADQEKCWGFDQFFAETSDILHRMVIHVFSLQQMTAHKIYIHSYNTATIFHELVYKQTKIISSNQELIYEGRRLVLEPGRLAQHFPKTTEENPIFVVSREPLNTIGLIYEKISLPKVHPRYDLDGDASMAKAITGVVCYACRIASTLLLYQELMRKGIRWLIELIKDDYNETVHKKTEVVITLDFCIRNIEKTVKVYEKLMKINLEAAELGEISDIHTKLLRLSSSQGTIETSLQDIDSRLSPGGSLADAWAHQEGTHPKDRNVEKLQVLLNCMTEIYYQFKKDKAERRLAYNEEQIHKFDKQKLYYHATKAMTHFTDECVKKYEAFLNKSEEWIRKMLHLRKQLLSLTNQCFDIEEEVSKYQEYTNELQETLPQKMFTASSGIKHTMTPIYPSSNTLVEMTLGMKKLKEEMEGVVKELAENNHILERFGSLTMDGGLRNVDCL
T3 sequence (O00418 whole entry): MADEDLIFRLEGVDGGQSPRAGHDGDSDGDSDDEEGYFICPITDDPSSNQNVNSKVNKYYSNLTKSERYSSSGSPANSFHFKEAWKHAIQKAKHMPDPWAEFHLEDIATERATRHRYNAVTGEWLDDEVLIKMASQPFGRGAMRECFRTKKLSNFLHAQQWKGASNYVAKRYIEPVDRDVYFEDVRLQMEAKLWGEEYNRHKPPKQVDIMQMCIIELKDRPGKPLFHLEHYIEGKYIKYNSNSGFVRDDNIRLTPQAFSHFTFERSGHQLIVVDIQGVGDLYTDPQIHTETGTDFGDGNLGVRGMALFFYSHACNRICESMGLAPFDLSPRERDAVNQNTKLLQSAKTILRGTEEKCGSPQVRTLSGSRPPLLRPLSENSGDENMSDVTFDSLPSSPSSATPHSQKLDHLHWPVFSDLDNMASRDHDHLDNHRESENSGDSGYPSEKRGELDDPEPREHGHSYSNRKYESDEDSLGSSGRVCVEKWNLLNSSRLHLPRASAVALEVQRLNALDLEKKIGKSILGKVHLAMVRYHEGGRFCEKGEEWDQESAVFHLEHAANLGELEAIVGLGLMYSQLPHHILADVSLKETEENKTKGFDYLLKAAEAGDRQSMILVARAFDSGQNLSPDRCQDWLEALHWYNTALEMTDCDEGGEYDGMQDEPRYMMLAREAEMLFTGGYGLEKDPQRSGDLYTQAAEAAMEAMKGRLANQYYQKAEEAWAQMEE
T8 sequence (P49841 whole entry): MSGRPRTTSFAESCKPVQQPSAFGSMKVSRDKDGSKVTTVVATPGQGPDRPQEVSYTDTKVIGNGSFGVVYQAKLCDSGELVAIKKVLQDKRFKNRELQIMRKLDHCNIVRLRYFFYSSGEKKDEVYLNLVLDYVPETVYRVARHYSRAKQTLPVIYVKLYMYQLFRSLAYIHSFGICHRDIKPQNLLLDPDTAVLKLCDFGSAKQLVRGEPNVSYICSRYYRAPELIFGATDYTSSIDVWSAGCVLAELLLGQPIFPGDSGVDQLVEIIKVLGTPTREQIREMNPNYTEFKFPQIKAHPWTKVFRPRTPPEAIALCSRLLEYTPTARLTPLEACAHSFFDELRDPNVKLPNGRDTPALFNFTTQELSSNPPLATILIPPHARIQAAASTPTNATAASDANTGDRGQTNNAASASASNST
T10 sequence (P31749 whole entry): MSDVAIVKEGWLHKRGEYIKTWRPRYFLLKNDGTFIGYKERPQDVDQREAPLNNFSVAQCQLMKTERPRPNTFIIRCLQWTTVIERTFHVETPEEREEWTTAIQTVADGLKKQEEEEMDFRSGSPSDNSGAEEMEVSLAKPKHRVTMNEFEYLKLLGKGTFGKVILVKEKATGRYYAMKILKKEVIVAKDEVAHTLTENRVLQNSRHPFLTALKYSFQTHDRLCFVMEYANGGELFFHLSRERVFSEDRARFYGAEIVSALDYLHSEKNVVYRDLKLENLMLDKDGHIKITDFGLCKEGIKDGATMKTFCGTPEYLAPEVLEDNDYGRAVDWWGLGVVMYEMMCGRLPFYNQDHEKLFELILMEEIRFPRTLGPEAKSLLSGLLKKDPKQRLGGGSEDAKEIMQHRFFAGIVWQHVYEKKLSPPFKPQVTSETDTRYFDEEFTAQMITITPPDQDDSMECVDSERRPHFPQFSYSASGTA
T1 sequence (Q15759 whole entry): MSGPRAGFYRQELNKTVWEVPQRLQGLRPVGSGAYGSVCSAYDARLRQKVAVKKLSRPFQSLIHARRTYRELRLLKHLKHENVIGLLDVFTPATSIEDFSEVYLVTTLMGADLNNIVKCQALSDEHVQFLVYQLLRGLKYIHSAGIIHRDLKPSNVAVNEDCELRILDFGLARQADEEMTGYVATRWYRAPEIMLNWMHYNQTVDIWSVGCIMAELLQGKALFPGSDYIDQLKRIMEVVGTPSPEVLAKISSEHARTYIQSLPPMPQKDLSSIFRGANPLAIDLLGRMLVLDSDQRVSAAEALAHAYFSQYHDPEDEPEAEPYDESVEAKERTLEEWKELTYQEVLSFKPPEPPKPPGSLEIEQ

Structure (SMILES) | number of PKs inhibited by more than 80% [1] | P38b MAPK activity compared to the control [2] | P38s MAPK activity compared to the control [3] | EF2K activity compared to the control [4] | MNK2 activity compared to the control [5] | PHK activity compared to the control [6] | TBK1 activity compared to the control [7] | ratio HsCDK2/TbGSK3 [8] | improvement of TbGSK3 inhibition potency ([9]; relative to saturated six-membered rings (4a, 4b) and benzyl groups (4c, 4d, 4e), on average) | inhibition at 10 µM [10] | inhibition at 10 µM [11] | AMPK activity compared to the control [12] | selectivity over MRC5 cells [13] | TbGSK3 potency relative to 4f ([9]; more potent than the unsubstituted phenyl compound 4f) | EC50 [14] | affinity for endogenous TbGSK3 short [15] | remaining activity at 10 µM [16] | PRK2 activity compared to the control [17] | RSK2 activity compared to the control [18]
CO[C@H]1CC[C@H](NC(=O)c2n[nH]cc2NC(=O)c2ccccc2)CC1 [Compound 4f, 4-Benzamido-N-(4-methoxycyclohexyl)-1H-pyrazole-3-carboxamide] | seven | 74% | 57% | 99% | 100% | 89% | 63% | <1.6 | ~20 fold |  |  |  |  |  |  |  |  |  | 
COc1cccc(OC)c1C(=O)Nc1c[nH]nc1C(=O)NC1CCC(OC)CC1 (centres unmarked) [Compound 4m, 4-(2,6-Dimethoxybenzamido)-N-(4-methoxycyclohexyl)-1H-pyrazole-3-carboxamide] | two |  |  |  |  |  |  |  |  | > 80% | > 80% | 88% | 60 fold | approximately 10 fold | < 1000 nM | nanomolar affinity |  |  | 
CO[C@H]1CC[C@H](NC(=O)c2n[nH]cc2NC(=O)c2ccc(-c3ccccc3)o2)CC1 [Compound 4y, N-(4-Methoxycyclohexyl)-4-(5-phenylfuran-2-carboxamido)-1H-pyrazole-3-carboxamide] |  |  | 38% | 92% | 77% | 45% | 73% |  |  |  |  | 49% |  |  |  |  | 86% | 65% | 93%

Reference: article PMC4175002, “The Design and Synthesis of Potent and Selective Inhibitors of Trypanosoma brucei Glycogen Synthase Kinase 3 for the Treatment of Human African Trypanosomiasis” (Journal of Medicinal Chemistry, 2014)
